Values of other authors in patent US20240166770A1, “COMPOSITIONS AND METHODS FOR INHIBITION OF CELL-PENETRATING ANTIBODIES” (Yale University, priority 2019, published 2024).
Read-outs that look alike come from different tables or passages of the source.

What was measured:
[1] = biological target: T1, ENT2 (Homo sapiens, UniProt Q14542); settings: cited from earlier work
T1 sequence (Q14542 1-456): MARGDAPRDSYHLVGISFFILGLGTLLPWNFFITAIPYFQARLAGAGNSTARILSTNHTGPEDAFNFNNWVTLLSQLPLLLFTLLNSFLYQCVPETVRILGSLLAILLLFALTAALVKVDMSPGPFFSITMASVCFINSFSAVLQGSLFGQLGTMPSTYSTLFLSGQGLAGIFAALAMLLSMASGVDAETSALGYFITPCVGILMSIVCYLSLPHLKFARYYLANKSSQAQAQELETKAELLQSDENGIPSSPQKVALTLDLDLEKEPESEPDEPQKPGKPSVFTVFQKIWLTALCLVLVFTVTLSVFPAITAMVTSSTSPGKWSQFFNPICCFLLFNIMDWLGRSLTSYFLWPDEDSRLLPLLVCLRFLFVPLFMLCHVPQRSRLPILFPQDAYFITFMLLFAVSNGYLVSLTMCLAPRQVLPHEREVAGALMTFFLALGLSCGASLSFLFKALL

[2] = biological target: T2, hENT1 (Homo sapiens, UniProt Q99808); settings: cited from earlier work
T2 sequence (Q99808 1-456): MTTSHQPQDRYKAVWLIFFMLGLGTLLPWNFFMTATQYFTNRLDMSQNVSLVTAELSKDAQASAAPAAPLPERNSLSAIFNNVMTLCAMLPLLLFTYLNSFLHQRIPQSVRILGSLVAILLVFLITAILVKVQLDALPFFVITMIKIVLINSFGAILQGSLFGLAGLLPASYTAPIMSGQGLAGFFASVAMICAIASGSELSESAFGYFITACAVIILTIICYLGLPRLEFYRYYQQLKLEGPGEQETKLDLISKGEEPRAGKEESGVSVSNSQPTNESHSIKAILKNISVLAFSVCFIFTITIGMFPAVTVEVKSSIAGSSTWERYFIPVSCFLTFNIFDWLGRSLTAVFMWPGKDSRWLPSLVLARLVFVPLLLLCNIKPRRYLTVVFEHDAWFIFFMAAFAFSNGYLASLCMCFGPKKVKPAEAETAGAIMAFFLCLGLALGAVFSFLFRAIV

[3] = biological target: T3, hENT4 (Homo sapiens, UniProt Q7RTT9); settings: cited from earlier work
T3 sequence (Q7RTT9 1-530): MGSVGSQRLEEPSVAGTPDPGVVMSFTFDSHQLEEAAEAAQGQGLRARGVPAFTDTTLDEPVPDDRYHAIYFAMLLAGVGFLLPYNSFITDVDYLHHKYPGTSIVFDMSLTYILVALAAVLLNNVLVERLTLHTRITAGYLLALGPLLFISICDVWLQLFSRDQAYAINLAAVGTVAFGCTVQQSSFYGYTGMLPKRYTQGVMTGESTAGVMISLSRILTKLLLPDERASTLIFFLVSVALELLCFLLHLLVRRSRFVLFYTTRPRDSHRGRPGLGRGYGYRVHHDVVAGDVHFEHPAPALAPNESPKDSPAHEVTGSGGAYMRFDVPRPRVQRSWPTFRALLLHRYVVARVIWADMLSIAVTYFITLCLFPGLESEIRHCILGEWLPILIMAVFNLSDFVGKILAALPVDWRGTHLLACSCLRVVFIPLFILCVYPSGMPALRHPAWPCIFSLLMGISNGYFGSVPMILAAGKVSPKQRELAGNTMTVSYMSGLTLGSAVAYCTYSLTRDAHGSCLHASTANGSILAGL

[4] = biological target: T3, hENT4; settings: cited from earlier work; remark: listed apart in the source
[5] = biological target: T1, ENT2; settings: Visser et al. 2002; cited from earlier work
[6] = Table 1, different ring systems at the 4- and 8-positions
[7] = Table 3, free hydrogen on the nitrogen of 4- and 8-position substituents
[8] = Table 2, opening chain analogues
[9] = Table 4, modification at hydroxyl groups of dipyridamole

**Q.** Which IC50 [1, 6] does the source give for OCCN(CCO)c1nc(N2C3CCCC2CC3)c2nc(N(CCO)CCO)nc(N3C4CCCC3CC4)c2n1 [compound 17] here?
**A.** The IC50 was 323 nM.

**Q.** What does the source list for OCCN(CCO)c1nc(N2CC3CC4CC(C3)CC2C4)c2nc(N(CCO)CCO)nc(N3CC4CC5CC(C4)CC3C5)c2n1 [compound 19]?
**A.** IC50 [2, 6]: 393 nM; IC50 [3, 6]: 200 nM

**Q.** What does the source list for OCCN(CCO)c1nc(N2CCCCC2)c2nc(N(CCO)CCO)nc(N3CCCCC3)c2n1 [Dipyridamole, 2,6-bis-(diethanolamino)-4,8-di-piperidino-pyrimidopyrimidine]?
**A.** IC50 [1, 6]: 308 nM; inhibition of hENT4 (in words) [4]: only weakly inhibits; inhibition of hENT4 (in words) ([4]; listed as dipyridamole): moderate inhibitors; Ki [5]: 6200 nM; IC50 [3, 6]: 2800 nM

**Q.** Which IC50 [2, 6] does the source give for OCCNc1nc(N2CC3CC4CC(C3)CC2C4)c2nc(NCCO)nc(N3CC4CC5CC(C4)CC3C5)c2n1 [compound 20] here?
**A.** The IC50 was 1430 nM.

**Q.** And the IC50 [3, 6]?
**A.** The IC50 was 602 nM.

**Q.** For OCCNc1nc(NCc2ccccc2)c2nc(NCCO)nc(NCc3ccccc3)c2n1 [compound 71], which IC50 [3, 7] is on record?
**A.** Its IC50 is 1760 nM.

**Q.** With CCCCCN(CCCCC)c1nc(N(CCO)CCO)nc2c(N(CCCCC)CCCCC)nc(N(CCO)CCO)nc12 [compound 31] as the compound, how does the IC50 [3, 8] read?
**A.** Its IC50 is 45700 nM.

**Q.** With OCCN(CCO)c1nc(NC2CC2)c2nc(N(CCO)CCO)nc(NC3CC3)c2n1 [compound 60] as the compound, how does the IC50 [1, 7] read?
**A.** Its IC50 is 2710 nM.

**Q.** And the IC50 [3, 7]?
**A.** Its IC50 is 37600 nM.

**Q.** For CCOCCN(CCOCC)c1nc(N2CCCCC2)c2nc(N(CCOCC)CCOCC)nc(N3CCCCC3)c2n1 [compound 77], which IC50 [2, 9] is on record?
**A.** The IC50 was 768 nM.

**Q.** What about the IC50 [3, 9] of the same compound?
**A.** Its IC50 is 29900 nM.

**Q.** For OCCN(CCO)c1nc(N2CCCC2)c2nc(N(CCO)CCO)nc(N3CCCC3)c2n1 [compound 2], which IC50 [1, 6] is on record?
**A.** The IC50 was 556 nM.

**Q.** Which IC50 [1, 7] does the source give for CCCCCNc1nc(N(CCO)CCO)nc2c(NCCCCC)nc(N(CCO)CCO)nc12 [compound 54] here?
**A.** The IC50 was 4790 nM.

**Q.** And the IC50 [3, 7]?
**A.** Its IC50 is 603 nM.

**Q.** For CCN(CC)c1nc(N(CCO)CCO)nc2c(N(CC)CC)nc(N(CCO)CCO)nc12 [compound 23], which IC50 [1, 8] is on record?
**A.** Its IC50 is 2930 nM.

**Q.** What about the IC50 [3, 8] of the same compound?
**A.** The IC50 was 4120 nM.

**Q.** For CC(C)CN(CC(C)C)c1nc(N(CCO)CCO)nc2c(N(CC(C)C)CC(C)C)nc(N(CCO)CCO)nc12 [compound 29], which IC50 [1, 8] is on record?
**A.** The IC50 was 1960 nM.

**Q.** What about the IC50 [2, 8] of the same compound?
**A.** Its IC50 is 2630 nM.

**Q.** And the IC50 [3, 8]?
**A.** Its IC50 is 1710 nM.

**Q.** Which IC50 [1, 8] does the source give for COCCN(CCOC)c1nc(N(CCO)CCO)nc2c(N(CCOC)CCOC)nc(N(CCO)CCO)nc12 [compound 35] here?
**A.** Its IC50 is 2090 nM.

**Q.** And the IC50 [2, 8]?
**A.** Its IC50 is 538 nM.

**Q.** What about the IC50 [3, 8] of the same compound?
**A.** Its IC50 is 104000 nM.

**Q.** Which IC50 [2, 7] does the source give for CCNc1nc(N(CCO)CCO)nc2c(NCC)nc(N(CCO)CCO)nc12 [compound 42] here?
**A.** The IC50 was 768 nM.

**Q.** With CCC(C)(C)Nc1nc(N(CCO)CCO)nc2c(NC(C)(C)CC)nc(N(CCO)CCO)nc12 [compound 58] as the compound, how does the IC50 [2, 7] read?
**A.** Its IC50 is 78.9 nM.

**Q.** And the IC50 [3, 7]?
**A.** Its IC50 is 818 nM.

**Q.** Which IC50 [2, 7] does the source give for OCCN(CCO)c1nc(Nc2ccccc2)c2nc(N(CCO)CCO)nc(Nc3ccccc3)c2n1 [compound 68] here?
**A.** Its IC50 is 1120 nM.

**Q.** What does the source list for CC(C)OCCN(CCO)c1nc(N2CCCCC2)c2nc(N(CCO)CCOC(C)C)nc(N3CCCCC3)c2n1 [compound 79]?
**A.** IC50 [1, 9]: 175 nM; IC50 [2, 9]: 67.5 nM

**Q.** Which IC50 [1, 6] does the source give for CC(C)(C)OC(=O)N1CCN(c2nc(N(CCO)CCO)nc3c(N4CCN(C(=O)OC(C)(C)C)CC4)nc(N(CCO)CCO)nc23)CC1 [compound 7] here?
**A.** Its IC50 is 2230 nM.

**Q.** And the IC50 [2, 6]?
**A.** The IC50 was 580 nM.

**Q.** Which IC50 [1, 7] does the source give for OCCN(CCO)c1nc(NC2CCC2)c2nc(N(CCO)CCO)nc(NC3CCC3)c2n1 [compound 62] here?
**A.** The IC50 was 727 nM.

**Q.** What about the IC50 [3, 7] of the same compound?
**A.** Its IC50 is 15700 nM.

**Q.** With CC(C)CCN(CCC(C)C)c1nc(N(CCO)CCO)nc2c(N(CCC(C)C)CCC(C)C)nc(N(CCO)CCO)nc12 [compound 33] as the compound, how does the IC50 [3, 8] read?
**A.** Its IC50 is 44200 nM.

**Q.** Which IC50 [3, 7] does the source give for CC(C)(C)Nc1nc(N(CCO)CCO)nc2c(NC(C)(C)C)nc(N(CCO)CCO)nc12 [compound 52] here?
**A.** The IC50 was 767 nM.

**Q.** With OCCN(CCO)c1nc(NC2CCCC2)c2nc(N(CCO)CCO)nc(NC3CCCC3)c2n1 [compound 64] as the compound, how does the IC50 [1, 7] read?
**A.** The IC50 was 1320 nM.

**Q.** And the IC50 [3, 7]?
**A.** The IC50 was 12200 nM.

**Q.** What does the source list for COCCN(CCOC)c1nc(N2CCCCC2)c2nc(N(CCOC)CCOC)nc(N3CCCCC3)c2n1 [compound 76]?
**A.** IC50 [1, 9]: 1470 nM; IC50 [3, 9]: 1820 nM
